Measurements: patent publication US7998965B2, “Glutamate aggrecanase inhibitors” (Wyeth LLC, priority 2005, dated 2011)

Assays:
[1] = target: T1, recombinant human catalytic domain of MMP-13 (Homo sapiens, UniProt P45452); experiment: In vitro fluorescence assay of MMP-13 activity; format: biochemical; conditions: Table 1; unit inferred
T1 construct: catalytic domain of MMP-13 (165 amino acids, residues 104-268, 19 kDa)

[2] = target: T2, MMP-1 (Homo sapiens, UniProt P03956); experiment: MMP-1 of Table 1; format: biochemical; conditions: for IC50: unit inferred; for MMP-1: unit not given
T2 sequence (P03956 100-469): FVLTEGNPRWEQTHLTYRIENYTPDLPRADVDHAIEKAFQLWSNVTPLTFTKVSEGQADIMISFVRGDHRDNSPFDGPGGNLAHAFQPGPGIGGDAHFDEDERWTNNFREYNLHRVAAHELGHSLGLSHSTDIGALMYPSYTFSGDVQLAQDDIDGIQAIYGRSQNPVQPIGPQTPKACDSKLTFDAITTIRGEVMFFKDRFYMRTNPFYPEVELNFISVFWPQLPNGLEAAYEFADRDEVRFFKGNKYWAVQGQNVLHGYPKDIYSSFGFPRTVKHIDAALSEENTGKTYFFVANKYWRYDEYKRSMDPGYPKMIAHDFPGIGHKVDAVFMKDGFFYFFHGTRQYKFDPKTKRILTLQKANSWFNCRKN

[3] = target: T3, recombinant human catalytic domain of MMP-14 (Homo sapiens, UniProt P50281); experiment: In vitro fluorescence assay of MMP-14 activity; format: biochemical; conditions: Table 1; unit inferred
T3 construct: 177 amino acids corresponding to Tyr89-Gly265 of mature human enzyme; purchased Chemicon International, Inc. CC1041

[4] = target: T4, purified recombinant human Aggrecanase-1 (rAgg1) (Homo sapiens, UniProt O75173); experiment: In vitro fluorescence screen for Aggrecanase-1 inhibitors; format: biochemical; conditions: Table 1; for Ki: enzyme not given, column follows Agg1 IC50, read-out: Ki; for IC50: read-out: Agg1 IC50
T4 sequence (O75173 213-837): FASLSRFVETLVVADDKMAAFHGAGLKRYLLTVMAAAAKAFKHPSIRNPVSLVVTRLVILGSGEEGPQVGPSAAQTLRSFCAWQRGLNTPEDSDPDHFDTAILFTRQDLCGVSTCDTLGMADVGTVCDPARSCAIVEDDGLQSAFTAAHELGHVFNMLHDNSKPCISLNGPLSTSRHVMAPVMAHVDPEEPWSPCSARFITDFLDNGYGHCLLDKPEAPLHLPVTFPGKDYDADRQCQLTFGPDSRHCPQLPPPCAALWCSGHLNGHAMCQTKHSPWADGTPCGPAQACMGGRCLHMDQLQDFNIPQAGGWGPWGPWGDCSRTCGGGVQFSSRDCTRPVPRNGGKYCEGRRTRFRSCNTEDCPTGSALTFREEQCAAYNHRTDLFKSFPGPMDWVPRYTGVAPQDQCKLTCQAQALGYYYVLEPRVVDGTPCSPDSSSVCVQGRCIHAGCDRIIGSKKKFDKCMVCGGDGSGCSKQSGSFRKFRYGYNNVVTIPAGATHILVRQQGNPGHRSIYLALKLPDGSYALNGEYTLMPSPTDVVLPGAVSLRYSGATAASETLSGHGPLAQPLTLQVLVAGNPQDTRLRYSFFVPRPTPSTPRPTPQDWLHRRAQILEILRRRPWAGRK

[5] = target: T5, purified recombinant human Aggrecanase-2 (Ag2t-Phe628-Strep) (Homo sapiens, UniProt Q9UNA0); experiment: In vitro fluorescence screen for Aggrecanase-2 inhibitors; format: biochemical; conditions: Table 1; read-out: Agg 2 IC50
T5 construct: the form used is denoted as Ag2t-Phe628-Strep (MW=41,737)
T5 sequence (Q9UNA0 262-628): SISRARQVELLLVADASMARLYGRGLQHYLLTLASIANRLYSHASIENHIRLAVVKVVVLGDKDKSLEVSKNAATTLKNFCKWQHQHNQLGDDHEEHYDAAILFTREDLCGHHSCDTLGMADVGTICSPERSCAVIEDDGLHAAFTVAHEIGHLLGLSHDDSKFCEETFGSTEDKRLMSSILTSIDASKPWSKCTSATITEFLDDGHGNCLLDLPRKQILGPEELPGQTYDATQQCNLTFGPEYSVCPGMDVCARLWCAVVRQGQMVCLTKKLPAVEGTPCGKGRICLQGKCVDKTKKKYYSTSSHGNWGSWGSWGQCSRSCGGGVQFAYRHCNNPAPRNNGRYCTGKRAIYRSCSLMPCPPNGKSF

[6] = target: T6, recombinant human MMP-2 (Homo sapiens, UniProt P08253); experiment: In vitro fluorescence assay of MMP-2 activity
T6 sequence (P08253 110-660): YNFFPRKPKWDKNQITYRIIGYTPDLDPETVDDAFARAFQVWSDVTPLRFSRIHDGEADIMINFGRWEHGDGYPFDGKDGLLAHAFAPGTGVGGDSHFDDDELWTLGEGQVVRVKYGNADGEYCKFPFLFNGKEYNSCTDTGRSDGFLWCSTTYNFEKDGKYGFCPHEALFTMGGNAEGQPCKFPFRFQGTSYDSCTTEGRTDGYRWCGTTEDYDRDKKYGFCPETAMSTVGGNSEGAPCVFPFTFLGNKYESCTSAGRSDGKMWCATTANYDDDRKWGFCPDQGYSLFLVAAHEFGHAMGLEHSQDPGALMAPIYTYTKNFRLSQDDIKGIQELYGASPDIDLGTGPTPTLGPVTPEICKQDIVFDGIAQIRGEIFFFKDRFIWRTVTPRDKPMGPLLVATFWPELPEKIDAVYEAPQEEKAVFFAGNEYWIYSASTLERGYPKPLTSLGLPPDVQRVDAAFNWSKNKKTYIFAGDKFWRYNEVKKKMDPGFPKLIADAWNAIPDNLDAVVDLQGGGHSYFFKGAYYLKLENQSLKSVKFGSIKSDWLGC

[7] = tested on: bovine articular cartilage treated with Interleukin 1 alpha (IL-1α); experiment: Bovine articular cartilage explant cultures: inhibition of degradation of proteoglycan; format: cell-based; conditions: inhibitory effect expressed as percentage, concentration not printed
Outline: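 Bovine metacarpal cartilage discs (6 mm), equilibrated in serum-free DMEM-based medium, were treated with 5 ng/ml IL-1 plus compound (working solutions 0.1-10 μg/ml), with medium collected and replaced on days 1, 2 and 3. Released proteoglycan was measured by DMMB absorbance at 520 nm against chondroitin sulphate standards, expressed as μg per mg cartilage, and inhibition given as percentage.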

[8] = Table 1, first of two columns headed bovine
[9] = Table 1, second of two columns headed bovine

| Structure (SMILES) | IC50 [1] | IC50 [2] | IC50 [3] | Ki [4] | IC50 [4] | IC50 [5] | IC50 [6] | MMP-1 [2] | bovine [7, 8] | bovine [7, 9] |
| --- | --- | --- | --- | --- | --- | --- | --- | --- | --- | --- |
| O=C(O)CC[C@H](NC(=O)c1ccc(-c2ccccc2)cc1)C(=O)NCc1cccc(I)c1 [Example 8JJ, N^2-(1,1′-biphenyl-4-ylcarbonyl)-N^1-(3-iodobenzyl)-L-α-glutamine] | 17 µM | > 200 µM | > 200 µM | 0.033 µM | 0.045 µM | 1.1 µM | 27 µM |  | 70% | 17% |
| CCCCCCCNC(=O)[C@H](CCC(=O)O)NC(=O)c1ccc(-c2ccccc2)cc1 [Example 8JJJ, N^2-(1,1′-biphenyl-4-ylcarbonyl)-N^1-heptyl-L-α-glutamine] | 30 µM | > 200 µM | > 200 µM | 0.054 µM | 0.054 µM | 0.3 µM | > 20 µM |  | 74% | 26% |
| COc1ccc(CCNC(=O)[C@H](CCC(=O)O)NC(=O)c2ccc(-c3ccccc3)cc2)cc1OC [Example 8L, N^2-(1,1′-biphenyl-4-ylcarbonyl)-N^1-[2-(3,4-dimethoxyphenyl)ethyl]-L-α-glutamine] | ~50 µM | > 100 µM | 21.5 µM |  | 0.055 µM | 0.189 µM | 10.5 µM |  | 87% | 79% |
| COc1ccc(CCNC(=O)[C@H](CCC(=O)O)NC(=O)c2ccc(-c3ccccc3)cc2)cc1 [Example 8M, N^2-(1,1′-biphenyl-4-ylcarbonyl)-N^1-[2-(4-methoxyphenyl)ethyl]-L-α-glutamine] | ~50 µM | > 100 µM | 13 µM |  | 0.12 µM | 0.856 µM | 8 µM |  | 85% | 17% |

More lines, main results first:

| IC50 [1] | IC50 [2] | IC50 [3] | Ki [4] | IC50 [4] | IC50 [5] | IC50 [6] | MMP-1 [2] | Structure (SMILES) | bovine [7, 8] | bovine [7, 9] |
| --- | --- | --- | --- | --- | --- | --- | --- | --- | --- | --- |
| 14 µM | > 50 µM | > 50 µM | 0.219 µM | 0.1 µM | 1.75 µM | > 10 µM |  | O=C(O)CC[C@H](NC(=O)c1ccc(-c2ccccc2)cc1)C(=O)NCc1ccc(F)c(C(F)(F)F)c1 [Example 8NNN, N^2-(1,1′-biphenyl-4-ylcarbonyl)-N^1-[4-fluoro-3-(trifluoromethyl)benzyl]-L-α-glutamine] | 60% | 0% |
| 31.4 µM |  | ~22 µM | 0.082 µM | 0.075 µM | 1.3 µM | 5 µM | no inh | Cc1cccc(CNC(=O)[C@H](CCC(=O)O)NC(=O)c2ccc(-c3ccccc3)cc2)c1 [Example 8O, N^2-(1,1′-biphenyl-4-ylcarbonyl)-N^1-(3-methylbenzyl)-L-α-glutamine] | 69% | 34% |
| 37.3 µM |  | ~22 µM | 0.031 µM | 0.011 µM | 0.4 µM | 6.1 µM | no inh | COc1cccc(CNC(=O)[C@H](CCC(=O)O)NC(=O)c2ccc(-c3ccccc3)cc2)c1 [Example 8Q, N^2-(1,1′-biphenyl-4-ylcarbonyl)-N^1-(3-methoxybenzyl)-L-α-glutamine] | 66% | 24% |
| 42.4 µM |  | ~22 µM | 0.005 µM | 0.016 µM | 0.05 µM | 10.4 µM | no inh | COc1cc(CNC(=O)[C@H](CCC(=O)O)NC(=O)c2ccc(-c3ccccc3)cc2)cc(OC)c1OC [Example 8R, N^2-(1,1′-biphenyl-4-ylcarbonyl)-N^1-(3,4,5-trimethoxybenzyl)-L-α-glutamine] | 86% | 78% |
| > 200 µM |  | ~25 µM | 0.245 µM | 0.15 µM | 1.3 µM | 3.13 µM | no inh | O=C(O)CC[C@H](NC(=O)c1ccc(-c2ccccc2)cc1)C(=O)NCc1ccc(Cl)cc1Cl [Example 8S, N^2-(1,1′-biphenyl-4-ylcarbonyl)-N^1-(2,4-dichlorobenzyl)-L-α-glutamine] | 51% | 40% |
